Measurements from ChEMBL document CHEMBL4325890, “Novel tyrosyl-DNA phosphodiesterase 1 inhibitors enhance the therapeutic impact of topoteсan on in vivo tumor models” (Eur J Med Chem, 2019).
One block for each molecule: values may come before it.

What was measured:
[1] = biological target: T1, Tyrosyl-DNA phosphodiesterase 1 (Homo sapiens, UniProt Q9NUW8)
[2] = biological target: T1, Tyrosyl-DNA phosphodiesterase 1; assay: Binding affinity to recombinant human Tdp1 (149 to 608 residues) expressed in Escherichia coli BL21 (DE3) by tryptophan fluorescence quenching assay
[3] = Stability of the compound assessed as imine hydrolysis at pH 1 HCl solution incubated for 24 hrs under shaking condition; format: physicochemical; details: buffer, pH 1, 24 h
[4] = Toxicity in C57BL/6 mouse implanted with C57BL mouse LLC cells assessed as state and behavioral changes at 1.5 mg/kg, ip administered on day 4, 5, 7 and 9 post-transplantation; format: organism-based; details: in vivo
[5] = Toxicity in C57BL/6 mouse implanted with C57BL mouse LLC cells assessed as death at 1.5 mg/kg, ip administered on day 4, 5, 7 and 9 post-transplantation; format: organism-based; details: in vivo
[6] = Toxicity in C57BL/6 mouse implanted with C57BL mouse LLC cells assessed as change in body weight at 1.5 mg/kg, ip administered on day 4, 5, 7 and 9 post-transplantation (reference value: 90%); format: organism-based; details: in vivo
[7] = Toxicity in C57BL/6 mouse implanted with C57BL mouse LLC cells assessed as liver index at 1.5 mg/kg, ip administered on day 4, 5, 7 and 9 post-transplantation measured 17 days post-transplantation (reference value: 5.8 +/- 0.38%); format: organism-based; details: in vivo, 408 h
[8] = Toxicity in C57BL/6 mouse implanted with C57BL mouse LLC cells assessed as spleen weight at 1.5 mg/kg, ip administered on day 4, 5, 7 and 9 post-transplantation measured 17 days post-transplantation (reference value: 252 +/- 12 mg); format: organism-based; details: in vivo, 408 h
[9] = biological target: T1, Tyrosyl-DNA phosphodiesterase 1; assay: Inhibition of Tdp1 (unknown origin)
[10] = Oral bioavailability in rabbit at 20 mg/kg by HPLC analysis; format: ADME, organism-based, Oryctolagus cuniculus; details: in vivo
[11] = biological target: T1, Tyrosyl-DNA phosphodiesterase 1; remark: listed apart in the source
[12] = Cytotoxicity against human MCF7 cells after 3 days by [3H]-thymidine incorporation assay; format: cell-based
[13] = Cytotoxicity against mouse LLTC cells after 3 days by [3H]-thymidine incorporation assay; format: cell-based
[14] = Acute toxicity in ig dosed specific pathogen free CD-1 mouse; format: organism-based; details: in vivo, po
[15] = Toxicity in C57BL/6 mouse implanted with C57BL mouse LLC cells assessed as state and behavioral changes at 100 mg/kg, ig administered as single dose; format: organism-based; details: in vivo, po
[16] = Toxicity in C57BL/6 mouse implanted with C57BL mouse LLC cells assessed as state and behavioral changes at 100 mg/kg, ig administered as single dose in presence of topotecan; format: organism-based; details: in vivo, po
[17] = Toxicity in C57BL/6 mouse implanted with C57BL mouse LLC cells assessed as death at 100 mg/kg, ig in presence of topotecan; format: organism-based; details: in vivo, po
[18] = Toxicity in C57BL/6 mouse implanted with C57BL mouse LLC cells assessed as death at 100 mg/kg, ig; format: organism-based; details: in vivo, po
[19] = Toxicity in C57BL/6 mouse implanted with C57BL mouse LLC cells assessed as change in body weight at 100 mg/kg, ig administered as single dose (reference value: 90%); format: organism-based; details: in vivo, po
[20] = Toxicity in C57BL/6 mouse implanted with C57BL mouse LLC cells assessed as change in body weight at 100 mg/kg, ig administered as single dose in presence of topotecan (reference value: 90%); format: organism-based; details: in vivo, po
[21] = tested on: Lewis lung carcinoma cell line; assay: Cytotoxicity against C57BL mouse LLC cells implanted in C57BL/6 mouse assessed as tumor weight at 100 mg/kg, ig administered as single dose measured 17 days post transplantation (reference value: 3.3 +/- 0.28 g); format: organism-based; details: in vivo, po, 408 h
[22] = tested on: Lewis lung carcinoma cell line; assay: Potentiation of topotecan-induced anticancer activity against C57BL mouse LLC cells implanted in C57BL/6 mouse assessed as tumor weight at 100 mg/kg, ig administered as single dose measured 17 days post transplantation (reference value: 2.9 +/- 0.28 g); format: functional
[23] = Toxicity in C57BL/6 mouse implanted with C57BL mouse LLC cells assessed as liver index at 100 mg/kg, ig administered as single dose measured 17 days post-transplantation in presence of topotecan (reference value: 5.8 +/- 0.38%); format: organism-based; details: in vivo, po, 408 h
[24] = Toxicity in C57BL/6 mouse implanted with C57BL mouse LLC cells assessed as liver index at 100 mg/kg, ig administered as single dose measured 17 days post-transplantation (reference value: 5.8 +/- 0.38%); format: organism-based; details: in vivo, po, 408 h
[25] = Toxicity in C57BL/6 mouse implanted with C57BL mouse LLC cells assessed as spleen weight at 100 mg/kg, ig administered as single dose measured 17 days post-transplantation in presence of topotecan (reference value: 252 +/- 12 mg); format: organism-based; details: in vivo, po, 408 h
[26] = Toxicity in C57BL/6 mouse implanted with C57BL mouse LLC cells assessed as spleen weight at 100 mg/kg, ig administered as single dose measured 17 days post-transplantation (reference value: 252 +/- 12 mg); format: organism-based; details: in vivo, po, 408 h
[27] = tested on: Lewis lung carcinoma cell line; assay: Cytotoxicity against C57BL mouse LLC cells implanted in C57BL/6 mouse assessed as effect on number of metastatic nodules in lung at 100 mg/kg, ig administered as single dose measured 17 days post transplantation by microscopic analysis; format: organism-based; details: in vivo, po, 408 h

T1 sequence (Q9NUW8 whole entry, the tested form may be a part): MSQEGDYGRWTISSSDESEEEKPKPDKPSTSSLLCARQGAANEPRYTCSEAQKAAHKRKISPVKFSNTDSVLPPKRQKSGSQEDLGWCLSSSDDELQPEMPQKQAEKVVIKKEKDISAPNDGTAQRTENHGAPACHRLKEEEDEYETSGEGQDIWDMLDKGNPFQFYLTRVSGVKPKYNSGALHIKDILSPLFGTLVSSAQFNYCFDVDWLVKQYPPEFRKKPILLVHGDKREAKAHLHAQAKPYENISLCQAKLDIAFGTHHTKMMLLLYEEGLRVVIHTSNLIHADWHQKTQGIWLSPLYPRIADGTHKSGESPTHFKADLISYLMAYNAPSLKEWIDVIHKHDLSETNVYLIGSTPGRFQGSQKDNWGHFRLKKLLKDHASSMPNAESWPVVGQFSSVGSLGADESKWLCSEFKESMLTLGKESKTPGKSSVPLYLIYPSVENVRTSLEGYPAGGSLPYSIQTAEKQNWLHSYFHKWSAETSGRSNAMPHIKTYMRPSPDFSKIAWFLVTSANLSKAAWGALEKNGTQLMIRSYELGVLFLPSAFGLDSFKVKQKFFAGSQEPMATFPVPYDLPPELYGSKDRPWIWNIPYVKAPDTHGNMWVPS

IC50 [1]: 1.21 µM
Structure (SMILES): CC(=O)C1=C(O)C=C2Oc3c(-c4csc(-c5cccnc5)n4)c(O)c(C)c(O)c3[C@@]2(C)C1=O

IC50 [1]: 0.15 µM | Kd [2]: 35.2 µM | Stability [3]: Stable
Structure (SMILES): CC(=O)C1=C(O)C=C2Oc3c(-c4csc(N/N=C/c5ccc(F)cc5)n4)c(O)c(C)c(O)c3[C@@]2(C)C1=O

IC50 [1]: 0.457 µM | Kd [2]: 31.1 µM | Stability [3]: Stable
Structure (SMILES): CC(=O)C1=C(O)C=C2Oc3c(-c4csc(N/N=C/c5ccc(O)cc5)n4)c(O)c(C)c(O)c3[C@@]2(C)C1=O

IC50 [1]: 5.9 µM
Structure (SMILES): CNc1nc(-c2c(O)c(C)c(O)c3c2OC2=CC(O)=C(C(C)=O)C(=O)[C@@]23C)cs1

IC50 [1]: 1.25 µM
Structure (SMILES): C=CCNc1nc(-c2c(O)c(C)c(O)c3c2OC2=CC(O)=C(C(C)=O)C(=O)[C@@]23C)cs1

IC50 [1]: 1.12 µM
Structure (SMILES): CC(=O)C1=C(O)C=C2Oc3c(-c4csc(-c5ccccc5)n4)c(O)c(C)c(O)c3[C@@]2(C)C1=O

IC50 [1]: 0.158 µM | Kd [2]: 8.65 µM | Stability [3]: Stable
Structure (SMILES): COc1ccc(/C=N/Nc2nc(-c3c(O)c(C)c(O)c4c3OC3=CC(O)=C(C(C)=O)C(=O)[C@@]34C)cs2)cc1

IC50 [1]: 4.1 µM
Structure (SMILES): CC(=O)C1=C(O)C=C2Oc3c(-c4csc(C)n4)c(O)c(C)c(O)c3[C@@]2(C)C1=O

The next lines start with the molecule.

Structure (SMILES): CC(=O)C1=C(O)C=C2Oc3c(-c4csc(Nc5ccccc5)n4)c(O)c(C)c(O)c3[C@@]2(C)C1=O
IC50 [1]: 0.61 µM

Structure (SMILES): CC(=O)C1=C(O)C=C2Oc3c(-c4csc(N/N=C/c5ccccc5)n4)c(O)c(C)c(O)c3[C@@]2(C)C1=O
IC50 [1]: 0.172 µM | Kd [2]: 7.14 µM | Stability [3]: Stable

Structure (SMILES): CC(=O)C1=C(O)C=C2Oc3c(-c4csc(N)n4)c(O)c(C)c(O)c3[C@@]2(C)C1=O
IC50 [1]: 3.8 µM

Structure (SMILES): COc1cc(/C=N/Nc2nc(-c3c(O)c(C)c(O)c4c3OC3=CC(O)=C(C(C)=O)C(=O)[C@@]34C)cs2)ccc1O
IC50 [1]: 0.192 µM | Kd [2]: 44.6 µM | Stability [3]: Stable

Structure (SMILES): CC[C@@]1(O)C(=O)OCc2c1cc1n(c2=O)Cc2cc3c(CN(C)C)c(O)ccc3nc2-1 [TOPOTECAN]
Activity [4]: Non-Toxic | Activity [5]: Non-Toxic | Activity [6]: 88.1% | Activity [7]: 5.8% | Activity [8]: 260 mg

Structure (SMILES): Cc1ccc(C)n1-c1ccc(Cl)c(C(=O)O)c1
IC50 [9]: 0.11 µM

Structure (SMILES): CC(=O)C1=C(O)C=C2Oc3c(C(C)=O)c(O)c(C)c(O)c3[C@@]2(C)C1=O [(+)-USNIC ACID]
IC50 [1]: > 50 µM

Structure (SMILES): CC(=O)C1=C(O)C=C2Oc3c(-c4csc(N/N=C/c5ccc(Cl)cc5)n4)c(O)c(C)c(O)c3[C@@]2(C)C1=O
IC50 [1]: 0.068 µM | Kd [2]: 9.46 µM | Stability [3]: Stable

Structure (SMILES): CC(=O)C1=C(O)C=C2Oc3c(-c4csc(N/N=C/c5ccc([N+](=O)[O-])cc5)n4)c(O)c(C)c(O)c3[C@@]2(C)C1=O
IC50 [1]: 0.035 µM | Kd [2]: 10.7 µM | Stability [3]: Stable

Structure (SMILES): CC(=O)c1c([O-])c(C)c([O-])c2c1OC1=CC(=O)C(C(C)=O)C(=O)[C@@]12C.[Na+].[Na+] (stereo not given in full)
bioavailability [10]: 78%

Structure (SMILES): CC(C)=CCCC(C)CCNC1C2CC3CC(C2)CC1C3 (stereo not given)
IC50 [1]: 3.5 µM

Structure (SMILES): COc1cc(/C=C2\SC(=S)N(c3ccc([N+](=O)[O-])cc3)C2=O)cc(Br)c1O
IC50 [11]: 1.08 µM

Structure (SMILES): CC(=O)C1=C(O)C=C2Oc3c(-c4csc(N/N=C/c5ccc(Br)cc5)n4)c(O)c(C)c(O)c3[C@@]2(C)C1=O
Kd [2]: 7.02 µM | CC50 at 72 h [12]: 1.69 µM | CC50 at 72 h [13]: 1.67 µM | LD50 [14]: > 5000 mg/kg | Activity [15]: Non-Toxic | Activity [16]: Non-Toxic | Activity [17]: Non-Toxic | Activity [18]: Non-Toxic | Activity [19]: 88.2% | Activity [20]: 89.7% | Activity [21]: 3.3 g | Activity [22]: 1.4 g | Activity [23]: 6.5% | Activity [24]: 6% | Activity [25]: 326 mg | Activity [26]: 281 mg | Activity [27]: Non-Toxic | Stability [3]: Stable

Structure (SMILES): CC(=O)C1=C(O)C=C2Oc3c(-c4csc(N/N=C/c5cccc([N+](=O)[O-])c5)n4)c(O)c(C)c(O)c3[C@@]2(C)C1=O
IC50 [1]: 0.086 µM | Kd [2]: 6.2 µM | Stability [3]: Stable

Structure (SMILES): CC(=O)C1=C(O)C=C2Oc3c(C(=O)CSC#N)c(O)c(C)c(O)c3[C@@]2(C)C1=O
IC50 [9]: 1.01 µM
